These results are taken from US20260146044A1, “AROMATIC COMPOUND, PHARMACEUTICAL COMPOSITION CONTAINING SAME, AND USE THEREOF” (Increland, priority 2023, published 2026).

In data set [1] the test system is secretion levels of IL-6 in PBMC cells. Description: Inhibition of R848-induced IL-6 secretion in PBMC (IL-6 ELISA). Format: cell-based. The conditions noted are these: human PBMC, 20 h compound pre-incubation, 24 h stimulation. The procedure:
This experiment was carried out in RPMI 1640 medium containing 10% FBS/1% penicillin/streptomycin, with each of the compounds at an initial test concentration of 1 μM. The compound DMSO was dissolved to form a stock solution, which was gradiently diluted 4-fold with the culture medium to a 4× working solution concentration. The diluted solution was added to a 96-well plate with 50 μL per well. PBMC (batch No.: HPP20062307, Sichuan Hope Bio-tech Co., Ltd.) cells were counted, and diluted to a concentration of 2×10^6/mL. The diluted cells were added to the above compound-containing 96-well plate with 150 μL per well, fully mixed, and incubated in an incubator with 5% CO2 at 37° C. for 20 h. Then, R848 was further added until a final concentration of […], and the cells were further incubated in the incubator with 5% CO2 at 37° C. for additional 24 h. Then, after centrifugation at 2,000 rpm for 4 min, the supernatant was diluted 110×, and detected using an IL-6 ELISA kit. An OD450 value was read, and converted to an IL-6 concentration based on a standard curve, to calculate an IC50 value by fitting a dose-effect curve using GraphPad 5.0.

For data set [2] the following is noted: microsomes.
Protocol: (§1) Blank incubation plates T60 and NCF60 were preheated for 10 min; liver microsome was diluted to 0.56 mg/mL in 100 mM phosphate buffer, 445 μL of the microsome working solution (0.56 mg/mL) was transferred to the preheated “incubation” plates T60 and NCF60, and then the incubation plates T60 and NCF60 were pre-incubated with continuous shaking at 37° C. for 10 min. 54 μL of the liver microsome was transferred to a blank plate, then 6 μL of a NAPDH cofactor was added to the blank plate, and then 180 μL of a quenching solution was added to the blank plate; 5 µL of a composite working solution (100 μM) was added to each of the microsome-containing incubation plates (T60 and NCF60), and the mixture was thoroughly mixed 3 times; 50 μL of a buffer was added to the NCF60 plate, and the mixture was thoroughly mixed 3 times. Timing was started; the plates were incubated with shaking at 37° C. for 60 min; and 180 μL of a quenching solution and 6 μL of the NAPDH cofactor were added to a quenching plate TO. The plates were ensured to be cooled to prevent evaporation. For the T60 plate, the mixture was thoroughly mixed 3 times, and 54 μL of the mixture was immediately transferred to the quenching plate at the time point of 0 min. Then, 44 μL of the NAPDH cofactor was added to the incubation plate (T60). Timing was started; and the plate was incubated with shaking at 37° C. for 60 min. At 5, 15, 30, 45, and 60 min, 180 μL of the quenching solution was added to the quenching plate, mixed once, and then 60 μL of sample was continuously transferred from the plate T60 to the quenching plate at each time point.
(§2) For NCF60, the mixture was mixed once, and at the time point of 60 min, 60 μL of sample was transferred from the NCF60 incubator to the quenching solution-containing quenching plate. All sampling plates were shaken for 10 min, then centrifuged at 4,000 rpm at 4° C. for 20 min. 80 µL of the supernatant was transferred to 240 μL of HPLC water, and mixed using a plate shaker for 10 min.
For data set [3] the following is noted: microsomes. The source holds these as a separate data set.
Protocol: as §1, §2
The subject of data set [4] is secretion levels of IL-6 in PBMC cells. The data set is described as follows: Inhibition of LPS+IL-1β-induced IL-6 secretion in PBMC (IL-6 ELISA). It is filed as cell-based. Conditions: human PBMC, 24 h compound pre-incubation, 20 h stimulation. The procedure:
This experiment was carried out in RPMI 1640 medium containing 10% FBS/1% penicillin/streptomycin, with each of the compounds at an initial test concentration of 1 μM. The compound DMSO was dissolved to form a stock solution, which was gradiently diluted 5-fold with the culture medium to a 4× working solution concentration. The diluted solution was added to a 96-well plate with 50 μL per well. PBMC (batch No.: HPP20062307, Sichuan Hope Bio-tech Co., Ltd.) cells were counted, and diluted to a concentration of 2×10^6/mL. The diluted cells were added to the above compound-containing 96-well plate with 150 μL per well, fully mixed, and incubated in an incubator with 5% CO2 at 37° C. for 24 h. Then, LPS and […] were further added to final concentrations of 10 ng/mL and 20 ng/mL, respectively, and the cells were further incubated in the incubator with 5% CO2 at 37° C. for 20 h. Then, after centrifugation at 2,000 rpm for 4 min, the supernatant was diluted 110×, and detected using an IL-6 ELISA kit. An OD450 value was read, and converted to an IL-6 concentration based on a standard curve, to calculate an IC50 value by fitting a dose-effect curve using GraphPad 5.0.

The nature of data set [5]: Pharmacokinetic experiment on mice (iv and ig). Format: in vivo. The conditions noted are these: mouse, plasma; for bioavailability: read-out: Oral bioavailability Fobs (%); for Cmax: read-out: Peak plasma concentration Cmax.
The nature of data set [6]: Pharmacokinetic experiment on SD rats (iv and ig). It is filed as in vivo. The conditions noted are these: Sprague-Dawley, rat, plasma; for Cmax: read-out: Peak plasma concentration Cmax; for bioavailability: ig 5.00 mg/kg vs iv 1.00 mg/kg, read-out: Oral bioavailability Fobs (%). The procedure: Pharmacokinetic experiment on SD rats: in this experiment, two administration modes: oral intragastric administration and tail vein injection were selected. Each of the compounds of the present patented invention was administered at an oral dose of 5 mg/kg at an administration volume of 10 mL/kg. […] Appropriate amounts of Solutol and H2O were proportionally added sequentially, and fully mixed ultrasonically by vortexing, to prepare a clear drug solution at 0.5 mg/mL. ICL004-protodrug was administered by intravenous injection at a dose of 1 mg/kg at an administration volume of 10 mL/kg. Right before use, an appropriate amount of the drug was accurately weighed, to prepare a final volume of 20% PEG 400 and 80% Saline. Appropriate amounts of PEG 400 and Saline were proportionally added sequentially, and fully mixed ultrasonically by vortexing, to prepare a clear drug solution at 0.1 mg/mL.
6 SD rats, each with body weight of 180-220 g, were randomly grouped into 2 groups. After fasting but with free access to water overnight, each […] in the first group was administered by gavage. 200 μL of blood was sampled from its eye socket into an anticoagulant tube respectively at each time point of 15 min, 30 min, 1 h, 2 h, 4 h, 6 h, 8 h, and 24 h after administration. Within one h, each of the blood samples was centrifuged at 10,000 rpm at 4° C. for 20 min (the sample was stored on an ice box prior to the centrifugation), and the supernatant (i.e., the plasma) was stored in a refrigerator at −20° C. for LC-MS/MS analysis. 200 μL of blood was sampled from the eye socket of each […] in the second group into an anticoagulant tube respectively at each time point of 5 min, 15 min, 30 min, 1 h, 2 h, 4 h, 8 h, and 24 h after administration by intravenous injection. Within one h, each of the blood samples was centrifuged at 10,000 rpm at 4° C. for 20 min (the blood sample was stored on an ice box prior to the centrifugation), and the supernatant, i.e., the plasma, was stored in a refrigerator at −20° C. for LC-MS/MS analysis.

Data set [7] in a line: Metabolic stability in human liver microsome. Conditions: liver microsomes. Background: Liver microsomes are a subcellular fraction often used to study metabolism.
Protocol: as §1, §2
A short description of data set [8]: Metabolic stability in mouse liver microsome. Conditions: liver microsomes.
Protocol: as §1, §2
Setting [9] is: po, BALB/c Mice, ig, 3.00 mg/kg.

The structures appear in SMILES notation.

In data set [1], `COc1cc2nn([C@H]3CC[C@H](CN4CCC(c5cccc6c5c(C)nn6C5CCC(=O)NC5=O)CC4)CC3)cc2cc1NC(=O)c1cccc(C(F)(F)F)n1` (stereo partly drawn) [TM-25] gave an IC50 of 28 nM. The “Human liver microsome (t1/2, min)” value in data set [2] is 117.1 min. Further, the “Mouse liver microsome (t1/2, min)” value in data set [3] was found to be 128.7 min.

For `Cc1nn(C2CCC(=O)NC2=O)c2cccc(N3CCN(C[C@H]4CC[C@H](n5cc6cc(NC(=O)c7cnn8cccnc78)c(N7CCOCC7)cc6n5)CC4)CC3)c12` (stereo partly drawn) [TM-33], the IC50 in data set [1] was determined as 13 nM; in data set [4] it was 10.2 nM. For the same compound, the bioavailability in data set [5] (po, BALB/c Mice, ig 3.00 mg/kg vs iv 1.00 mg/kg) turned out to be 92.1%; in data set [6] (po), 91.9%. Also, the AUC in data set [5] (setting [9]) stood at 135000 ng·h/mL; in data set [5] (BALB/c Mice, iv, 1.00 mg/kg), 63100 ng·h/mL; in data set [6] (iv, 1.00 mg/kg), 2250 ng·h/mL; in data set [6] (po, ig, 5.00 mg/kg), 13800 ng·h/mL. Moreover, the AUC(0-inf) in data set [5] (setting [9]) came to 289000 ng·h/mL; in data set [5] (BALB/c Mice, iv, 1.00 mg/kg), 104000 ng·h/mL; in data set [6] (iv, 1.00 mg/kg), 2300 ng·h/mL; in data set [6] (po, ig, 5.00 mg/kg) it was 10600 ng·h/mL. Besides, the Cmax in data set [5] (setting [9]) came to 12400 ng/mL; in data set [5] (BALB/c Mice, iv, 1.00 mg/kg), 6800 ng/mL; in data set [6] (iv, 1.00 mg/kg), 530 ng/mL; in data set [6] (po, ig, 5.00 mg/kg), 1100 ng/mL. The figures for the half-life at 1 µM in data set [7] and in data set [8] were 1.3 h and 0.782 h, respectively.

Consider `Cc1nn(C2CCC(=O)NC2=O)c2cccc(OC3CCN(C[C@H]4CC[C@H](n5cc6cc(NC(=O)c7cnn8cccnc78)c(N7CCOCC7)cc6n5)CC4)CC3)c12` (stereo partly drawn) [TM-56], for which 5.49 nM corresponded to half-maximal inhibition in data set [4] (IC50). The bioavailability worked out at 91.9% in data set [5] (po, ICR Mice, ig 5.00 mg/kg vs iv 1.00 mg/kg) and 10.7% in data set [6] (po). Also, the AUC in data set [5] (po, ICR Mice, ig, 5.00 mg/kg) was determined as 2510 ng·h/mL; in data set [5] (ICR Mice, iv, 1.00 mg/kg), 524 ng·h/mL; in data set [6] (iv, 1.00 mg/kg) it was 1900 ng·h/mL; in data set [6] (po, ig, 5.00 mg/kg) it was 1060 ng·h/mL. Also, the AUC(0-inf) in data set [5] (po, ICR Mice, ig, 5.00 mg/kg) stood at 2820 ng·h/mL; in data set [5] (ICR Mice, iv, 1.00 mg/kg), 613 ng·h/mL; in data set [6] (iv, 1.00 mg/kg), 1980 ng·h/mL; in data set [6] (po, ig, 5.00 mg/kg), 1120 ng·h/mL. Also, the Cmax in data set [5] (po, ICR Mice, ig, 5.00 mg/kg) was 220 ng/mL; in data set [5] (ICR Mice, iv, 1.00 mg/kg), 81 ng/mL; in data set [6] (iv, 1.00 mg/kg), 477 ng/mL; in data set [6] (po, ig, 5.00 mg/kg) it was 96 ng/mL. Besides, the half-life at 1 µM in data set [7] stood at 1.35 h; in data set [8], 1.17 h.

With `Cn1c(=O)n(C2CCC(=O)NC2=O)c2cccc(C#CCOC3CCN(C[C@H]4CC[C@H](n5cc(NC(=O)c6cnn7ccc(N8C[C@H]9C[C@@H]8CO9)nc67)c(C(F)F)n5)CC4)CC3)c21` (stereo partly drawn) [Positive compound, reference compound], the IC50 in data set [1] was found to be 38.5 nM; in data set [4], 38.4 nM. Further, the half-life at 1 µM is 0.657 h in data set [7] and 0.49 h in data set [8].

In general, IC50 refers to the concentration at which inhibition is half-maximal. Broadly, the bioavailability is dose-corrected exposure relative to a reference, in per cent. What is called AUC is the area under the concentration-time curve, a measure of exposure. A higher AUC goes with more exposure. Broadly, the AUC(0-inf) is total exposure, with the tail of the curve extrapolated. In general, half-life refers to the time in which the quantity being followed falls by half. Read a high half-life as slow decline.
